For orientation: pKi means the Ki on a negative log10 scale, so that one unit is a factor of ten.

The values that follow come from paper PMC7181695, “Targeting the interaction between RNA-binding protein HuR and FOXQ1 suppresses breast cancer invasion and metastasis” (Communications Biology, 2020).

Molecules are shown by their SMILES. pKi: −log10 of the molar value.

For the assay, the target named is T1, HuR (Hu antigen R, ELAVL1) (Homo sapiens, UniProt Q15717).
T1 construct: full-length HuR (FP, SPR); HuR RRM1/2 (AlphaLISA, SPR)
Kind of assay: FP competition with fluorescein-labeled ARE-Msi1 RNA; SPR direct binding to immobilized HuR; AlphaLISA (Ki […]); CETSA in MDA-MB-231 cells. In general terms: Bead proximity is the source of the signal in Alpha formats.

T1 sequence (Q15717 2-326): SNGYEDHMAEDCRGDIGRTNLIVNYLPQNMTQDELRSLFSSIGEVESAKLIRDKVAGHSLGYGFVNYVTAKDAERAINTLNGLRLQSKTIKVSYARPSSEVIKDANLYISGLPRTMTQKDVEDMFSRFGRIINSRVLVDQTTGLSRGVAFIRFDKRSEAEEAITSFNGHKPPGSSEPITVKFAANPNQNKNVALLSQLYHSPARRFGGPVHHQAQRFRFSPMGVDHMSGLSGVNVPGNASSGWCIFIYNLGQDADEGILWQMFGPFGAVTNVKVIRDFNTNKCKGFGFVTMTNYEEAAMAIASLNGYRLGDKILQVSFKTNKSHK

In turn, `CC(C)(C)c1ccc(S(=O)(=O)Nc2ccc3sc(/C=C/C(=O)NO)cc3c2)cc1` [KH-3, (E)-3-(5-((4-(tert-Butyl)phenyl)sulfonamido)benzo[b]thiophen-2-yl)-N-hydroxyacrylamide] showed a pKi of 6.08.
